Results taken from US9371324B2, “Substituted pyrido[3′,4′:4,5]pyrrolo[1,2,3-de]quinoxalines for the treatment of nervous system disorders” (INTRA-CELLULAR THERAPIES, INC., priority 2010, dated 2016).
Read-outs that look alike come from different tables or passages of the source.

Experiments:
[1] = Single dose oral bioavailability and pharmacokinetic study in Sprague Dawley rats; assay type: in vivo, Sprague Dawley rat; settings: for AUC(0-t) / Cmax / Tmax / half-life: Sprague Dawley (Crl:CD(SD)BR), rat, plasma, mean, after single oral 30 mg/kg of Example 1, label = analyte; for half-life: read-out: t½ (converted); for Course of plasma concentration over time: rats, after oral Example 1, 30 mg/kg, over 8 hours
Protocol: Animals are Used for the Study:
• Strain/Species: Sprague Dawley (Crl:CD®(SD)BR) Rat • Sex: Male and Female • Age at Receipt: 7-8 weeks • Weight Range: 225-300 g • Number of Animals on Study: 3 Males and 3 Females Preparation of Dosage Formulation
The suspension is prepared by placing the required amount of methylcellulose in deionized water in a glass container. The suspension are kept stirring with a magnetic stirrer until completion of daily dosing. The dose suspensions are prepared on the day of dosing for each test article group.
A total of 3 male and 3 female rats are dosed at 30 mg/kg. Blood samples are collected at 0.30 min, 1, 4 and 8 h after dosing. Plasma samples are analyzed to determine plasma concentrations of the Compound of Example 1, the Compound of Formula Q wherein X is —N(CH3)— and Y is —C(═O), and the Compound of Formula Q wherein X is —N(H)— and Y is —C(═O). The pharmacokinetic profile is determined using WinNonlin.
Animals are anesthetized with isoflurane, and whole blood (˜0.5 mL/time point) is collected from the orbital sinus utilizing a glass capillary tube on the first day of treatment at the following times: 0.30 min, 1, 4 and 8 h after dosing. Whole blood (˜0.5 mL) is collected into chilled plastic tubes containing sodium heparin as supplied by the manufacturer. The blood collection tubes are mixed several times by manual inversion or gentle vortexing and stored on wet ice until centrifugation. The blood is centrifuged (˜2700 g, ˜10 min, ˜5° C.). Plasma is transferred with disposable plastic pipettes to plastic vials and stored at approximately −70° C. until analyzed.

SERT = SERT (Homo sapiens, UniProt P31645); experiment: biochemical
dopamine receptors = experiment: Step-down latency test; assay type: in vivo; settings: mice; oral; tests at 120, 180, 240 and 360 minutes; FIG. 2
Protocol: Drugs that antagonize dopamine receptors in the brain slow motor behavior and can induce a cataleptic state. This activity can be assessed in mice using a simple step down latency test. In this test, mice are held by the tail, and the rodents forepaws are placed on a rod and its hindpaws placed on the bench top. The time for forepaws to step down from the rod is then measured. A maximum of 2 min is allowed at which time the animal is taken away from the rod and returned to the home cage. The compound of Example 1 or haloperidol (used as a positive control) is administered orally 120 minutes before the first test. Step down latency tests are conducted at 120, 180, 240, and 360 minutes after the administration of the compound of Example 1 or haloperidol. After each test mice are returned to their cages. The results are show in FIG. 2.

[2] = Hydrolysis of Example 4 in EDTA-containing rat whole blood; assay type: in vitro ADME; settings: for Concentration: Example 4 incubated in rat whole blood at 37 degrees, HPLC-MS
5-HT2 receptor = experiment: DOI-induced head twitch test in mice; assay type: in vivo; settings: oral
Description: When administered to mice, it produces a behavioral profile associated with frequent head twitches. The frequency of these head twitches during a predetermined period of time can be taken as an estimate of 5-HT2 receptor agonism in the brain. Conversely, this behavioral assay can be used to determine 5-HT2 receptor antagonism in the brain by administering the DOI with or without an antagonist and recording the reduction in DOI-induced head twitches after the administration of the antagonist.
The method of Darmani et al., Pharmacol Biochem Behav. (1990) 36:901-906 (the contents of which are incorporated by reference in their entirety) is used with some modifications. (±)-DOI HCl is injected subcutaneously and the mice are immediately placed in a conventional plastic cage. The number of head twitches is counted during 6 min, beginning 1 min after DOI administration. The compound of Example 1 is administered orally 0.5 hr before the injection of DOI.

[3] = target: T1, serotonin reuptake transport (SERT) (Homo sapiens, UniProt P31645); experiment: Inhibition of serotonin uptake in a human platelet assay using tritiated serotonin; assay type: cell-based
T1 construct: endogenous in cells; host or cells: human platelets
T1 sequence (P31645 whole entry): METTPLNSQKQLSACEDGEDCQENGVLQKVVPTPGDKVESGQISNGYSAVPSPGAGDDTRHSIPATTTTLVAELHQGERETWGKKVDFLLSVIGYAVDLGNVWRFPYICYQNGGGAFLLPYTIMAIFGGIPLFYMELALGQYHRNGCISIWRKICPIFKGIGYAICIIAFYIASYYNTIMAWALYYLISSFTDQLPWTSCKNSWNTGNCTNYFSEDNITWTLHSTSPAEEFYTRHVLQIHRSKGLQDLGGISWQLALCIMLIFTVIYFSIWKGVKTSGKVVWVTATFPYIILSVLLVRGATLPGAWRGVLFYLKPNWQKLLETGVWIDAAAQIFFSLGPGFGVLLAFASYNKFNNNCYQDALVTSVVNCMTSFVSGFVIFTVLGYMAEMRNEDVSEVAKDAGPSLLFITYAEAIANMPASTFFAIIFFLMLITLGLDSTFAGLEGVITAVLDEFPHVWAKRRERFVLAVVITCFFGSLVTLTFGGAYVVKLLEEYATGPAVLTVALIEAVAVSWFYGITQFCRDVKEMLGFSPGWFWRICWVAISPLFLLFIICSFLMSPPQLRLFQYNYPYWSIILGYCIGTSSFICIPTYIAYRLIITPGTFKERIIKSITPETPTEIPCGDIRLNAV

Chain of SERT (P31645 whole entry): as above

| AUC(0-t) ([1]; female rats) [ng·h/mL] | Cmax ([1]; female rats) [ng/mL] | Tmax ([1]; female rats) [h] | half-life ([1]; female rats) [h] | AUC(0-t) ([1]; male rats) [ng·h/mL] | Cmax ([1]; male rats) [ng/mL] | Tmax ([1]; male rats) [h] | half-life ([1]; male rats) [h] | Course of plasma concentration over time [1] | Concentration ([2]; 5 min) [µM] | Concentration ([2]; 10 min) [µM] | Concentration ([2]; 15 min) [µM] | Concentration ([2]; 30 min) [µM] | Concentration ([2]; 60 min) [µM] | Concentration ([2]; 90 min) [µM] | Structure (SMILES) | further results |
| --- | --- | --- | --- | --- | --- | --- | --- | --- | --- | --- | --- | --- | --- | --- | --- | --- |
| 71 | 11.8 | 1 | 23.4 | 54.5 | 4.85 | 0.75 | 12.1 | maintained over 8 hours | – | – | – | – | – | – | CN1CCN2c3c(cccc31)[C@@H]1CN(CCCC(=O)c3ccc(F)cc3)CC[C@@H]12 | – |
| 89.7 | 12.8 | 5.33 | – | 37.4 | 5.84 | 1 | 17.8 | maintained over 8 hours | – | – | – | – | – | – | O=C(CCCN1CC[C@H]2[C@@H](C1)c1cccc3c1N2CCN3)c1ccc(F)cc1 | – |
| 767 | 144 | 3.33 | 11.6 | 421 | 91.6 | 0.83 | 5.83 | generally decreases over time | 8.43 | 12.02 | 13.42 | 19.21 | 24.66 | 33.31 | CN1CCN2c3c(cccc31)[C@@H]1CN(CCCC(O)c3ccc(F)cc3)CC[C@@H]12 (stereo partly shown) [Example 1] | Ki (SERT): 71 nM; Effect on step down latency (dopamine receptors): significantly and dose dependently increased step down latency; IC50 for reducing DOI-induced head twitches (5-HT2 receptor; 0.5 hr before DOI, twitches counted during 6 min): 0.31 mg/kg; Effect on DOI-induced head twitches (5-HT2 receptor; before DOI, FIG. 1): significantly and dose dependently reduced head twitches; Ki [3]: 1500 nM; SERT inhibitory activity ([3]; imipramine as reference, compared with the corresponding keto compound of Formula Q): potent SERT inhibitory activity |
| – | – | – | – | – | – | – | – | – | 24.92 | 18.51 | 9.21 | 7.06 | 2.74 | 1.75 | CCCC(=O)OC(CCCN1CC[C@H]2[C@@H](C1)c1cccc3c1N2CCN3C)c1ccc(F)cc1 (stereo partly shown) [Example 4] | Concentration ([2]; 0 min): 52.84 µM; Cleavage of the ester in blood ([2]; rat whole blood, during 90 minutes): steadily cleaved back to the compound of Example 1 |
